Earlier results as cited in PMC8198792, “Prediction of Anticancer Peptides with High Efficacy and Low Toxicity by Hybrid Model Based on 3D Structure of Peptides” (International Journal of Molecular Sciences, 2021).
Like-named read-outs stand apart in the source and are kept apart here.

Tested on: cancer cell lines
Set-up: method as in 6 sources, ref CancerPPD [45] and SATPdb ||| ref CancerPPD/SATPdb ||| ref CancerPPD, SATPdb, Swissprot (PDB) ||| ref CancerPPD/SATPdb/Swissprot(PDB) ||| ref CancerPPD / SATPdb ||| ...
Conditions: cited from earlier work
Source text: Supplement ijms-22-05630-s001.zip/ACPs(seguence).xlsx, sheet "D1" | column: Activity || Supplement ijms-22-05630-s001.zip/ACPs(seguence).xlsx, sheet "D2" | column: Activity || Supplement ijms-22-05630-s001.zip/ACPs(seguence).xlsx, sheet "D3" | column: Activity || (+ 2 further places)

[1] = ACPs dataset D3 (supplement sheet "D3"), 1 = ACP, 0 = non-ACP, ref CancerPPD [45] and SATPdb
[2] = ACPs dataset D4 (sheet "D4"), label 1 = ACP (CancerPPD ID), 0 = non-ACP (non-anticancer AMP, SATPdb ID), ref CancerPPD [45] and SATPdb
[3] = ACPs dataset D5 (sheet "D5"), label 1 = ACP (positive set), 0 = non-ACP (negative set), ref CancerPPD [45] and SATPdb
[4] = ACPs dataset D1, 1 = ACP (positive), 0 = non-ACP (negative), label taken from databases, ref CancerPPD [45] and SATPdb
[5] = ACPs dataset D4 (sheet "D4"), label 1 = ACP, experimentally validated ACPs, ref CancerPPD [45] and SATPdb
[6] = ACPs dataset D5 (sheet "D5"), label 1 = ACP (positive set), sequences with CancerPPD/SATPdb ID, ref CancerPPD, SATPdb
[7] = ACPs dataset sheet D2, 1 = ACP (CancerPPD/SATPdb ID), 0 = non-ACP (Swissprot/PDB ID), ref CancerPPD, SATPdb, Swissprot (PDB)
[8] = ACPs dataset D1, label 1 = ACP, 0 = non-ACP (non-anticancer AMPs from SATPdb), ref CancerPPD/SATPdb
[9] = ACPs dataset D4 (sheet "D4"), label 1 = ACP, 0 = non-ACP, ref CancerPPD / SATPdb
[10] = ACPs dataset D2 (supplement ACPs(seguence).xlsx, sheet D2), dataset label 1/0 (ACP / non-ACP), entries identified by Swissprot(PDB ID), ref CancerPPD/SATPdb/Swissprot(PDB)
[11] = ACPs dataset D3 (sheet "D3"), label 1 = ACP, 0 = non-ACP, ref CancerPPD/SATPdb
[12] = ACPs dataset D5, sheet "D5", label 1 = ACP, 0 = non-ACP, ref CancerPPD [45] and SATPdb

Substance | Activity [1] | Activity [2] | Activity [3] | Activity [4] | Activity [7] | also measured
PPPEE [compound 1426] | 1 | 1 | 1 | – | – | –
KWKSFlKTFKSlKKTVlHTlLKAISS [compound 3772] | 1 | 1 | 1 | – | – | –
GKWMSLLKKILK [compound 3651] | 1 | 1 | 1 | – | – | –
GLFDVIKKVASVIKGL [compound 4075] | 1 | 1 | 1 | – | – | –
HHPHGHHPHGHHPHGHHPHG [compound 4189] | – | – | – | 1 | 1 | Activity [5]: 1; Activity [6]: 1
RDCTSQSHKFVGLCLSDRNCASVCLTEYFTGGKCDHRRCVCTKGC [satpdb13162] | – | – | – | – | – | Activity [8]: 0; Activity [9]: 0
GVFGLLAKAALKGASKLIPHLLPSRQQ [satpdb12176] | – | 0 | – | – | – | Activity [8]: 0
VAKCTEESGGKYFVFCCYKPTRICYMNEQKCESTCIGK [satpdb10361] | – | 0 | – | 0 | – | –
GTLPCGESCVWIPCISAVVGCSCKSKVCYKN [satpdb10694] | – | 0 | – | 0 | – | –
SFGLCRLRRGFCARGRCRFPSIPIGRCSRFVQCCRRVW [1UT3 NMR - A 1-38] | – | – | 0 | – | – | Activity [10]: 0
GIWDTIKSMGKVFAGKILQN [satpdb10030] | – | 0 | – | 0 | – | –
INEFLERSGIPRQRNQ [satpdb14958] | – | – | – | 1 | 1 | Activity [5]: 1; Activity [6]: 1
HRHQGPIFDTRPSPFNPNQPRPGPIY [satpdb10283] | – | 0 | – | 0 | – | –
GVDITVIRPNH [satpdb22601] | – | – | – | 1 | 1 | Activity [5]: 1; Activity [6]: 1
LCNERPSQTWSGNCGNTAHCDKQCQDWEKASHGACHKRENHWKCFCYFNC [1BK8 NMR - A 1-50] | – | – | 0 | – | – | Activity [10]: 0
GIIKKIIIKKIIIKKIIIKKI [compound 1434] | – | – | – | 1 | 1 | Activity [5]: 1; Activity [6]: 1
KGRGKRRREKQRPCDKPRR [satpdb15140] | – | – | – | 1 | 1 | Activity [5]: 1; Activity [6]: 1
RICPRIWMECKRDSDCMAQCICVDGHCG [1F2S X-ray 1.79 I 1-28] | – | – | 0 | – | 0 | –
DFKLFAVYIKYR [satpdb16901] | – | – | – | 1 | 1 | Activity [5]: 1; Activity [6]: 1
KVMAHMK [satpdb14375] | – | – | – | – | – | Activity [11]: 0; Activity [9]: 0; Activity [12]: 0
KWKLFKKIPKFLHLA [compound 1134] | 1 | 1 | 1 | – | – | –
ISDYSIAMDKIRQQDFVNWLLAQKGKKSDWKHNITQ [satpdb11921] | – | 0 | – | – | – | Activity [8]: 0
FLKWLFKWAKK [compound 1716] | 1 | – | – | – | – | Activity [5]: 1; Activity [6]: 1
GLFDVIKAVASVIGGL [compound 4057] | 1 | 1 | 1 | – | – | –
ALSKALSKALSKALSKALSKALSK [compound 1357] | 1 | – | – | – | – | Activity [5]: 1; Activity [6]: 1
ITIPPIIKDTLKKFFKGGIAGVMGKSQ [satpdb11170] | – | 0 | – | 0 | – | –
GKWKKILGHLIR [compound 3645] | 1 | 1 | 1 | – | – | –

Substance | Activity [1] | Activity [2] | Activity [3] | Activity [4] | Activity [7] | also measured
AIGSILGALAKGLPTLISWIKNR [compound 4433] | – | – | – | 1 | 1 | Activity [5]: 1; Activity [6]: 1
KILRGVAKKIMRTFLRRISKDILTGKK [compound 3325] | 1 | 1 | 1 | – | – | –
KWKLFAKIGIGKFLHLAKKF [compound 1837] | 1 | 1 | 1 | – | – | –
GLFDIIKKIAESF [compound 1252] | 1 | 1 | 1 | – | – | –
IWLTALKFLGKNLGKHLAKQQLAKL [6CL3 NMR - A 1-25] | – | – | 0 | – | 0 | –
WKSYVRRWRSR [satpdb10329] | – | 0 | – | 0 | – | –
GSIPCEGSCVFIPCISAIIGCSCSNKVCYKN [compound 4379] | – | – | – | 1 | 1 | Activity [5]: 1; Activity [6]: 1
KWCFCVCYRGICYCRCRG [satpdb12871] | – | – | – | – | – | Activity [8]: 0; Activity [9]: 0
GFGCPGNQLKCNNHCKSISCRAGYCDAATLWLRCTCTDCNGKK [satpdb11046] | – | 0 | – | 0 | – | –
LNWGAVLKHVVK [satpdb11336] | 0 | – | – | – | – | Activity [9]: 0; Activity [12]: 0
FLPVIAGVAANFLPKLFCAISKKC [compound 4361] | – | – | – | 1 | 1 | Activity [5]: 1; Activity [6]: 1
ALALLOHALHOLALLAOHLAHOLALA [satpdb14515] | – | – | – | – | – | Activity [11]: 0; Activity [9]: 0; Activity [12]: 0
MERSTRELCLNFTVVLITVILIWLLVRSYQY [3W5A X-ray 3.01 C 1-31] | – | – | 0 | – | 0 | –
WDLVVVSAGVAEVGV [satpdb12938] | – | – | – | 1 | 1 | Activity [5]: 1; Activity [6]: 1
GLFVGVLAKVAAHVVPAIAEHF [compound 4391] | – | – | – | 1 | 1 | Activity [5]: 1; Activity [6]: 1
GLFDIVKKVVGTLAGL [compound 4409] | – | – | – | 1 | 1 | Activity [5]: 1; Activity [6]: 1
GLFDVIKKVAAVIGGL [compound 4066] | 1 | 1 | 1 | – | – | –
KWKLFKKIGPGKFLHSAKKF [compound 1186] | 1 | 1 | 1 | – | – | –
KWKSFLKTFKSlKKTVLHTlLKAISS [compound 3756] | 1 | 1 | 1 | – | – | –
GLFKVIKKVASVIGGL [compound 4147] | 1 | 1 | 1 | – | – | –
PAWRKAFRAAWRMLKKAA [compound 1610] | – | – | – | 1 | 1 | Activity [5]: 1; Activity [6]: 1
AKLkAyPLKAKLyP [satpdb12877] | – | – | – | – | – | Activity [11]: 0; Activity [9]: 0; Activity [12]: 0
LPKWKVFKKIEKVGRNIRNGIVKAGPAIAVLGEAKALG [compound 4275] | 1 | 1 | 1 | – | – | –
FLGALAKIISGIF [satpdb11200] | – | 0 | – | 0 | – | –
KWKSFLKTFKSLKKTVLHTLLkAISS [compound 3767] | 1 | 1 | 1 | – | – | –
ETFADWWKLLAE [compound 5061] | – | – | – | 1 | 1 | Activity [5]: 1; Activity [6]: 1
FISAIASFLGKFL [satpdb11448] | – | 0 | – | – | – | Activity [8]: 0
